Source: US10961231B2, “NTCP inhibitors” (National Institute of Biological Sciences, Beijing, priority 2018, dated 2021)

Molecular target: T1, NTCP (Homo sapiens, UniProt Q14973)
T1 sequence (Q14973 1-349): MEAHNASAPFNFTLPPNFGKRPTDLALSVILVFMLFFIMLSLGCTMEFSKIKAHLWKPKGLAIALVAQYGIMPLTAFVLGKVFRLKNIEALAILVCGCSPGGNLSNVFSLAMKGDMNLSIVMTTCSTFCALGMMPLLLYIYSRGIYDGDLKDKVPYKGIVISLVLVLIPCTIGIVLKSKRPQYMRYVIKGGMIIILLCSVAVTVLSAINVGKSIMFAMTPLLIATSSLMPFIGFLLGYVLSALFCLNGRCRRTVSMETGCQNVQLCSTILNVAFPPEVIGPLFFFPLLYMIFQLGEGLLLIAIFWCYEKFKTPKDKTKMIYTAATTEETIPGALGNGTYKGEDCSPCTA
Experiment: [3H]-TCA uptake assay (NTCP inhibition)
Format: cell-based
Conditions: IC50, given as a range, marked * (asterisk not explained)
How it was run: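 Read-out is liquid scintillation counting of Triton X-100 lysates after 15 min, 37° C uptake of 1 μM [3H]-taurocholate in Na+ Ringer's buffer (145 mM Na). Beforehand, PTH and HepG2-NTCP cells had 24 h in PMM for NTCP induction and 2 h of compound or DMSO treatment.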

SMILES	IC50
CCC1NC(=O)C(C2OC(SCc3cccc(N4CCOCC4)c3)CC2C)N(C)C(=O)C(C(C)C)N(C)C(=O)C(CC(C)C)N(C)C(=O)C(CC(C)C)N(C)C(=O)C(C)NC(=O)C(C)NC(=O)C(CC(C)C)N(C)C(=O)C(C(C)C)NC(=O)C(CC(C)C)N(C)C(=O)CN(C)C1=O (stereo not drawn) [Compound 95-s]	1 to 100 µM
CCC1NC(=O)C(C2OC(OCc3cccc(N4CCOCC4)c3)CC2C)N(C)C(=O)C(C(C)C)N(C)C(=O)C(CC(C)C)N(C)C(=O)C(CC(C)C)N(C)C(=O)C(C)NC(=O)C(C)NC(=O)C(CC(C)C)N(C)C(=O)C(C(C)C)NC(=O)C(CC(C)C)N(C)C(=O)CN(C)C1=O (stereo not drawn) [Compound 95]	1 to 100 µM
CCC1NC(=O)C(C2OC(SC(C)c3ccc(Cl)c(Cl)c3)CC2C)N(C)C(=O)C(C(C)C)N(C)C(=O)C(CC(C)C)N(C)C(=O)C(CC(C)C)N(C)C(=O)C(C)NC(=O)C(C)NC(=O)C(CC(C)C)N(C)C(=O)C(C(C)C)NC(=O)C(CC(C)C)N(C)C(=O)CN(C)C1=O (stereo not drawn) [Compound 96A-s]	1 to 100 µM
CCC1NC(=O)C(C2OC(SCc3cc(Cl)ccc3Cl)CC2C)N(C)C(=O)C(C(C)C)N(C)C(=O)C(CC(C)C)N(C)C(=O)C(CC(C)C)N(C)C(=O)C(C)NC(=O)C(C)NC(=O)C(CC(C)C)N(C)C(=O)C(C(C)C)NC(=O)C(CC(C)C)N(C)C(=O)CN(C)C1=O (stereo not drawn) [Compound 98A-s]	1 to 100 µM
CCC1NC(=O)C(C2OC(SCc3ccc(N4CCOCC4)cc3)CC2C)N(C)C(=O)C(C(C)C)N(C)C(=O)C(CC(C)C)N(C)C(=O)C(CC(C)C)N(C)C(=O)C(C)NC(=O)C(C)NC(=O)C(CC(C)C)N(C)C(=O)C(C(C)C)NC(=O)C(CC(C)C)N(C)C(=O)CN(C)C1=O (stereo not drawn) [Compound 99A-s]	1 to 100 µM
CCC1NC(=O)C(C2OC(SCc3ccc4c(c3)OCO4)CC2C)N(C)C(=O)C(C(C)C)N(C)C(=O)C(CC(C)C)N(C)C(=O)C(CC(C)C)N(C)C(=O)C(C)NC(=O)C(C)NC(=O)C(CC(C)C)N(C)C(=O)C(C(C)C)NC(=O)C(CC(C)C)N(C)C(=O)CN(C)C1=O (stereo not drawn) [Compound 100A-s]	1 to 100 µM
CCC1NC(=O)C(C2OC(SCc3cc(F)c(Cl)cc3Cl)CC2C)N(C)C(=O)C(C(C)C)N(C)C(=O)C(CC(C)C)N(C)C(=O)C(CC(C)C)N(C)C(=O)C(C)NC(=O)C(C)NC(=O)C(CC(C)C)N(C)C(=O)C(C(C)C)NC(=O)C(CC(C)C)N(C)C(=O)CN(C)C1=O (stereo not drawn) [Compound 101A-s]	1 to 100 µM
CCC1NC(=O)C(C2OC(SC(C)c3ccc(Cl)cc3)CC2C)N(C)C(=O)C(C(C)C)N(C)C(=O)C(CC(C)C)N(C)C(=O)C(CC(C)C)N(C)C(=O)C(C)NC(=O)C(C)NC(=O)C(CC(C)C)N(C)C(=O)C(C(C)C)NC(=O)C(CC(C)C)N(C)C(=O)CN(C)C1=O (stereo not drawn) [Compound 102-s]	1 to 100 µM
CCC1NC(=O)C(C2OC(OC(C)c3ccc(Cl)cc3)CC2C)N(C)C(=O)C(C(C)C)N(C)C(=O)C(CC(C)C)N(C)C(=O)C(CC(C)C)N(C)C(=O)C(C)NC(=O)C(C)NC(=O)C(CC(C)C)N(C)C(=O)C(C(C)C)NC(=O)C(CC(C)C)N(C)C(=O)CN(C)C1=O (stereo not drawn) [Compound 102]	1 to 100 µM
CCC1NC(=O)C(C2OC(SCc3cc(Cl)c(F)cc3Cl)CC2C)N(C)C(=O)C(C(C)C)N(C)C(=O)C(CC(C)C)N(C)C(=O)C(CC(C)C)N(C)C(=O)C(C)NC(=O)C(C)NC(=O)C(CC(C)C)N(C)C(=O)C(C(C)C)NC(=O)C(CC(C)C)N(C)C(=O)CN(C)C1=O (stereo not drawn) [Compound 103-s]	1 to 100 µM
CCC1NC(=O)C(C2OC(OCc3cc(Cl)c(F)cc3Cl)CC2C)N(C)C(=O)C(C(C)C)N(C)C(=O)C(CC(C)C)N(C)C(=O)C(CC(C)C)N(C)C(=O)C(C)NC(=O)C(C)NC(=O)C(CC(C)C)N(C)C(=O)C(C(C)C)NC(=O)C(CC(C)C)N(C)C(=O)CN(C)C1=O (stereo not drawn) [Compound 103]	1 to 100 µM
CCC1NC(=O)C(C2OC(SCc3cc(Cl)c(Cl)cc3Cl)CC2C)N(C)C(=O)C(C(C)C)N(C)C(=O)C(CC(C)C)N(C)C(=O)C(CC(C)C)N(C)C(=O)C(C)NC(=O)C(C)NC(=O)C(CC(C)C)N(C)C(=O)C(C(C)C)NC(=O)C(CC(C)C)N(C)C(=O)CN(C)C1=O (stereo not drawn) [Compound 104-s]	1 to 100 µM
CCC1NC(=O)C(C2OC(OCc3cc(Cl)c(Cl)cc3Cl)CC2C)N(C)C(=O)C(C(C)C)N(C)C(=O)C(CC(C)C)N(C)C(=O)C(CC(C)C)N(C)C(=O)C(C)NC(=O)C(C)NC(=O)C(CC(C)C)N(C)C(=O)C(C(C)C)NC(=O)C(CC(C)C)N(C)C(=O)CN(C)C1=O (stereo not drawn) [Compound 104]	1 to 100 µM
CCC1NC(=O)C(C2OC(SCc3cccc(OCC4CCOCC4)c3)CC2C)N(C)C(=O)C(C(C)C)N(C)C(=O)C(CC(C)C)N(C)C(=O)C(CC(C)C)N(C)C(=O)C(C)NC(=O)C(C)NC(=O)C(CC(C)C)N(C)C(=O)C(C(C)C)NC(=O)C(CC(C)C)N(C)C(=O)CN(C)C1=O (stereo not drawn) [Compound 105-s]	1 to 100 µM
CCC1NC(=O)C(C2OC(OCc3cccc(OCC4CCOCC4)c3)CC2C)N(C)C(=O)C(C(C)C)N(C)C(=O)C(CC(C)C)N(C)C(=O)C(CC(C)C)N(C)C(=O)C(C)NC(=O)C(C)NC(=O)C(CC(C)C)N(C)C(=O)C(C(C)C)NC(=O)C(CC(C)C)N(C)C(=O)CN(C)C1=O (stereo not drawn) [Compound 105]	1 to 100 µM

Same assay, conditions: IC50, given as a range; assay not given

SMILES	IC50
CCC1NC(=O)C(C2OC(OCc3ccc(N4CCOCC4)cc3)CC2C)N(C)C(=O)C(C(C)C)N(C)C(=O)C(CC(C)C)N(C)C(=O)C(CC(C)C)N(C)C(=O)C(C)NC(=O)C(C)NC(=O)C(CC(C)C)N(C)C(=O)C(C(C)C)NC(=O)C(CC(C)C)N(C)C(=O)CN(C)C1=O [Compound 99A, [2-((2R,3R)-3-methyl-5-(4-morpholinobenzyloxy)tetrahydrofuran-2-yl)-2-(methylamino)acetic acid]^1-cyclosporin A]	1 to 10 µM

Same assay, conditions: given as a range; assay not given

SMILES	IC50
CCC1NC(=O)C(C2OC(OCc3ccc(Cl)c(Cl)c3)CC2C)N(C)C(=O)C(C(C)C)N(C)C(=O)C(CC(C)C)N(C)C(=O)C(CC(C)C)N(C)C(=O)C(C)NC(=O)C(C)NC(=O)C(CC(C)C)N(C)C(=O)C(C(C)C)NC(=O)C(CC(C)C)N(C)C(=O)CN(C)C1=O [Compound 94B, [2-((2R,3R)-5-(3,4-dichlorobenzyloxy)-3-methyltetrahydrofuran-2-yl)-2-(methylamino)acetic acid]^1-cyclosporin A]	0.001 to 1 µM
CCC1NC(=O)C(C2OC(OCc3ccc4c(c3)OCO4)CC2C)N(C)C(=O)C(C(C)C)N(C)C(=O)C(CC(C)C)N(C)C(=O)C(CC(C)C)N(C)C(=O)C(C)NC(=O)C(C)NC(=O)C(CC(C)C)N(C)C(=O)C(C(C)C)NC(=O)C(CC(C)C)N(C)C(=O)CN(C)C1=O [Compound 100A, [2-((2R,3R)-5-(benzo[d][1,3]dioxol-5-ylmethoxy)-3-methyltetrahydrofuran-2-yl)-2-(methylamino)acetic acid]^1-cyclosporin A]	0.001 to 1 µM
